Where a name gives a salt, the structure may show the parent alone.
Assays:
[1] = Cell cytotoxicity determination (MTT) in Vero CCL-81 cells; type: cell-based; conditions: monkey
Description: Cell Cytotoxicity determination: 100 μL Vero CCL-81 cells were seeded on to 96 well plate at a density of 3×10^6 cells/mL. The plates were incubated for 24 hrs at 37° C. with 5% CO2. After overnight incubation the spent medium was discarded and 100 μL of different concentrations of each drugs prepared earlier from the stock was added to the respective wells in quadruplets. The plates were incubated for 72 hr at 37° C. in 5% CO2. After the incubation, the medium containing drug was discarded. The cell monolayer was washed by adding 100 μL of 1×PBS. 100 μL of plain MEM and 50 μl of MTT (2 mg/ml concentration) was added to each well. Followed by incubation for 4 hrs at 37° C. in 5% CO2. At the end of incubation, the cell supernatant was discarded and 200 μl of DMSO was added to each well to dissolve the formazan crystals. 25 μL of Sorensen's glycine buffer was added immediately to each well. The plates were incubated in dark for 30 min at room temperature. The OD was measured at 570 nm using ELISA plate reader. CC50 value was plotted using Prism Pad application.

[2] = tested on: SARS-COV-2 strain NIV 2020-770; assay: microbe, parasite or virus in culture; type: cell-based; conditions: for IC50: Severe acute respiratory syndrome coronavirus 2, 72 h; for SI (selectivity index): against SARS-CoV-2
[3] = In vitro toxicity in WI-38 cells (MTS-PMS kit); type: cell-based; conditions: human, WI-38 human lung fibroblast cells, read-out: IC50 (cytotoxicity)
Text: (§1) The toxicity of ((((((R)-1-(6-amino-9H-purin-9-yl) propan-2-yl) oxy) methyl) (phenoxy) phosphoryl)oxy)methyl pivalate fumarate and Metabolite of compound of formula 1 in different human lung cells viz, WI-38 (human lung fibroblast cells) and Calu-3 (human lung bronchial cells) by using the MTS-PMS kit investigated.
(§2) MTS-PMS kit details (CellTiter 96@ Aqueous kit)
This is a colorimetric method for determining the number of viable cell measures viable cells in proliferation, cytotoxicity or chemosensitivity assays. The assay is composed of solutions of a novel tetrazolium compound [3-(4,5-dimethylthiazol-2-yl)-5-(3-carboxymethoxyphenyl)-2-(4-sulfophenyl)-2H-tetrazolium, inner salt; MTS] and an electron coupling reagent (phenazine methosulfate) PMS. MTS is bioreduced by cells into a formazan product that is soluble in tissue culture medium. The absorbance of the formazan product at 490 nm can be measured directly from 96-well assay plates without additional processing. The conversion of MTS into the aqueous soluble formazan product is accomplished by dehydrogenase enzymes found in metabolically active cells. The quantity of formazan product as measured by the amount of 490 nm absorbance is directly proportional to the number of living cells in culture.
Respective cells were harvested from exponential phase cultures, […] on the cell line's growth rate. After a 24 h recovery period to allow the cells to resume exponential growth. TPF or Metabolite of compound of formula 1 was applied at 6-8 concentrations in duplicate and treatment continued for different time points. After completion of incubation 20 μL/well MTS-PMS reagent was added to each well (MTS-PMS was prepared as follows: CellTiter 96@AQueous Assay Reagents MTS Solution and the PMS Solution should be thawed before use. Remove 2.0 ml of MTS Solution. Add […] of PMS Solution to the 2.0 ml of MTS Solution immediately). Following an incubation period of up to four hours, the plate was read to 490 nm. For calculations, the mean values of duplicate data were used. Sigmoidal concentration-response curves were fitted to the data points (T/C values) obtained for each cell line using 4 parameter non-linear curve fit.
Cells were harvested from exponential phase cultures, […] on the cell line's growth rate. After a 24 h recovery period to allow the cells to resume exponential growth. TPF or Metabolite of compound of formula 1 was applied at 6-8 concentrations in duplicate and treatment continued for different time points. For Calu-3 cells the treatment was the treatment was for 72 hrs while WI-38 cells were treated for 48 and 96 hrs. After the treatment of cells, 20 μL/well MTS-PMS reagent was added. Following an incubation period of up to four hours, the plate was read to 490. […]

[4] = In vitro toxicity in Calu-3 cells (MTS-PMS kit); type: cell-based; conditions: human, Calu-3 human lung bronchial cells, read-out: IC50 (cytotoxicity)
Text: as §1, §2
This is a colorimetric method for determining the number of viable cell measures viable cells in proliferation, cytotoxicity or chemosensitivity assays. […] The absorbance of the formazan product at 490 nm can be measured directly from 96-well assay plates without additional processing. […] The quantity of formazan product as measured by the amount of 490 nm absorbance is directly proportional to the number of living cells in culture.
Respective cells were harvested from exponential phase cultures, […] on the cell line's growth rate. […] Following an incubation period of up to four hours, the plate was read to 490 nm. […]
Cells were harvested from exponential phase cultures, […] on the cell line's growth rate. […] Following an incubation period of up to four hours, the plate was read to 490. […]

[5] = tested on: A549 (human lung alveolar cells) monolayer
in vitro = conditions: human

Compound | CC50 at 72 h [1] | IC50 [2] | SI (selectivity index) ([2]; window between cytotoxicity (CC50) and antiviral activity (IC50), fumarate) | SI (selectivity index) ([2]; window between cytotoxicity (CC50) and antiviral activity (IC50); fumarate)) | IC50 at 48 h [3] | IC50 at 96 h [3] | IC50 at 72 h [4] | permeability classification [5] | P-app ([5]; apical to basal) | SI (selectivity index) ([2]; window between cytotoxicity (CC50) and antiviral activity (IC50)) | SI (selectivity index) ([2]; window between cytotoxicity (CC50) and antiviral activity (IC50), listed as compound of formula 2) | Papp A→B (in vitro)
C[C@H](Cn1cnc2c(N)ncnc21)OC[P@@](=O)(OCOC(=O)C(C)(C)C)Oc1ccccc1 [((((((R)-1-(6-amino-9H-purin-9-yl)propan-2-yl)oxy)methyl) (phenoxy)phosphoryl)oxy)methyl pivalate fumarate] | > 100 µM | < 1 µM | >100 | > 100 | > 100 µM | > 100 µM | > 100 µM | highly permeable | > 20 ×10⁻⁶ cm/s | – | – | –
C[C@H](Cn1cnc2c(N)ncnc21)OCP(=O)(O)Oc1ccccc1 [Compound of formula 2, tenphenol] | > 100 µM | ~12 µM | – | – | > 100 µM | > 100 µM | > 100 µM | moderately permeable | – | >8.33 | 8.33 | < 20 ×10⁻⁶ cm/s

Source: patent US20240009214A1 (priority 2020, published 2024)
